From patent publication US8597875B2, “Method for diagnosing liver toxicity with sex specific biomarkers” (BASF SE, priority 2008, dated 2013)

How the values were obtained:
male rats = assay: Plasma metabolite profiling (GC-MS/LC-MS) for liver toxicity markers, 28-day gavage study, male rats; format: in vivo, rat; settings: male rats
Method: (§1) A group of each 5 male and female rats was dosed once daily with the indicated compounds (see tables below) at 10 and 100 mg/kg body weight per gavage over 28 days. Additional groups of each 5 male and female animals served as controls. Before starting the treatment period, animals, which were 62-64 days old when supplied, were acclimatized to the housing and environmental conditions for 7 days. All animals of the animal population were kept under the same constant temperature (20-24±3° C.) and the same constant humidity (30-70%). Each animal of the animal population was kept in a separate cage. The animals of the animal population are fed ad libitum. The food to be used was be essentially free of chemical or microbial contaminants. Drinking water was also offered ad libitum. Accordingly, the water was be free of chemical and microbial contaminants as laid down in the European Drinking Water Directive 98/83/EG. The illumination period was 12 hours light followed by 12 hours darkness (12 hours light, from 6:00 to 18:00, and 12 hours darkness, from 18:00 to 6:00).
(§2) In the morning of day 7, 14, and 28, blood was taken from the retroorbital venous plexus from fasted anaesthetized animals. From each animal, 1 ml of blood was collected with EDTA as anticoagulant. The samples were be centrifuged for generation of plasma. All plasma samples were covered with a N2 atmosphere and then stored at −80° C. until analysis.
(§3) For mass spectrometry-based metabolite profiling analyses plasma samples were extracted and a polar and a non-polar fraction was obtained. For GC-MS analysis, the non-polar fraction was treated with methanol under acidic conditions to yield the fatty acid methyl esters. Both fractions were further derivatised with O-methyl-hydroxyamine hydrochloride and pyridine to convert Oxo-groups to O-methyloximes and subsequently with a silylating agent before analysis. In LC-MS analysis, both fractions were reconstituted in appropriate solvent mixtures. HPLC was performed by gradient elution on reversed phase separation columns. For mass spectrometric detection metanomics proprietary technology was applied which allows target and high sensitivity MRM (Multiple Reaction Monitoring) profiling in parallel to a full screen analysis.
(§4) Following comprehensive analytical validation steps, the data for each analyte were normalized against data from pool samples. These samples were run in parallel through the whole process to account for process variability. The significance of treatment group values specific for sex, dose group and metabolite was determined by comparing means of the treated groups to the means of the respective untreated control groups using WELCH-test. Normalized treatment group values and their significance were fed into a database for further statistics and data mining processes.
(§5) The changes of the group of plasma metabolites being indicative for liver toxicity after treatment of the rats are shown in the following tables: […]

female rats = assay: Plasma metabolite profiling (GC-MS/LC-MS) for liver toxicity markers, 28-day gavage study, female rats; format: in vivo, rat; settings: female rats
Method: as §1, §2, §3, §4, §5

CN(C)C=O [Dimethylformamide]
1,2-Dioleoyl-sn-glycero-3-phosphatidyl-L-serine, change of plasma metabolite (male rats; mh7 (day 7)): 1.31 | 4-Hydroxysphingosine, change of plasma metabolite (male rats; mh7 (day 7)): 2.14 | Arachidonic acid (C20:cis-[5,8,11,14]4), change of plasma metabolite (male rats; mh7 (day 7)): 1.68 | Behenic acid (C22:0), change of plasma metabolite (male rats; mh7 (day 7)): 2.07 | Ceramide (d18:1, C24:0), change of plasma metabolite (male rats; mh7 (day 7)): 1.72 | Ceramide (d18:1, C24:1), change of plasma metabolite (male rats; mh7 (day 7)): 1.71 | Cholesterol, change of plasma metabolite (male rats; mh7 (day 7)): 2.01 | Docosahexaenoic acid (C22:cis[4,7,10,13,16,19]6), change of plasma metabolite (male rats; mh7 (day 7)): 1.96 | Eicosatrienoic acid, change of plasma metabolite (male rats; mh7 (day 7)): 2.55 | Glycerolphosphate, lipid fraction, change of plasma metabolite (male rats; mh7 (day 7)): 1.86 | Heptadecanoic acid (C17:0), change of plasma metabolite (male rats; mh7 (day 7)): 1.27 | Lignoceric acid (C24:0), change of plasma metabolite (male rats; mh7 (day 7)): 2.04 | Linoleic acid (C18:cis[9,12]2), change of plasma metabolite (male rats; mh7 (day 7)): 1.71 | Nervonic acid (C24:1), change of plasma metabolite (male rats; mh7 (day 7)): 2.53 | Palmitic acid (C16:0), change of plasma metabolite (male rats; mh7 (day 7)): 1.38 | Phosphatidylcholine (C18:2, C20:4), change of plasma metabolite (male rats; mh7 (day 7)): 1.18 | alpha-Tocopherol, change of plasma metabolite (male rats; mh7 (day 7)): 2.69 | myo-Inositol-2-monophosphate, lipid fraction, change of plasma metabolite (male rats; mh7 (day 7)): 1.92 | 1,2-Dioleoyl-sn-glycero-3-phosphatidyl-L-serine, change of plasma metabolite (male rats; mh14 (day 14)): 1.28 | 4-Hydroxysphingosine, change of plasma metabolite (male rats; mh14 (day 14)): 2.07 | Arachidonic acid (C20:cis-[5,8,11,14]4), change of plasma metabolite (male rats; mh14 (day 14)): 1.74 | Behenic acid (C22:0), change of plasma metabolite (male rats; mh14 (day 14)): 2.15 | Ceramide (d18:1, C24:0), change of plasma metabolite (male rats; mh14 (day 14)): 1.40 | Ceramide (d18:1, C24:1), change of plasma metabolite (male rats; mh14 (day 14)): 1.70 | Cholesterol, change of plasma metabolite (male rats; mh14 (day 14)): 2.15 | Docosahexaenoic acid (C22:cis[4,7,10,13,16,19]6), change of plasma metabolite (male rats; mh14 (day 14)): 1.99 | Eicosatrienoic acid, change of plasma metabolite (male rats; mh14 (day 14)): 2.02 | Glycerolphosphate, lipid fraction, change of plasma metabolite (male rats; mh14 (day 14)): 1.67 | Heptadecanoic acid (C17:0), change of plasma metabolite (male rats; mh14 (day 14)): 1.51 | Lignoceric acid (C24:0), change of plasma metabolite (male rats; mh14 (day 14)): 2.22 | Linoleic acid (C18:cis[9,12]2), change of plasma metabolite (male rats; mh14 (day 14)): 1.70 | Nervonic acid (C24:1), change of plasma metabolite (male rats; mh14 (day 14)): 3.57 | Palmitic acid (C16:0), change of plasma metabolite (male rats; mh14 (day 14)): 1.64 | Phosphatidylcholine (C18:2, C20:4), change of plasma metabolite (male rats; mh14 (day 14)): 1.17 | alpha-Tocopherol, change of plasma metabolite (male rats; mh14 (day 14)): 2.46 | myo-Inositol-2-monophosphate, lipid fraction, change of plasma metabolite (male rats; mh14 (day 14)): 2.48 | 1,2-Dioleoyl-sn-glycero-3-phosphatidyl-L-serine, change of plasma metabolite (male rats; mh28 (day 28)): 1.41 | 4-Hydroxysphingosine, change of plasma metabolite (male rats; mh28 (day 28)): 2.35 | Arachidonic acid (C20:cis-[5,8,11,14]4), change of plasma metabolite (male rats; mh28 (day 28)): 1.55 | Behenic acid (C22:0), change of plasma metabolite (male rats; mh28 (day 28)): 2.24 | Ceramide (d18:1, C24:0), change of plasma metabolite (male rats; mh28 (day 28)): 1.63 | Ceramide (d18:1, C24:1), change of plasma metabolite (male rats; mh28 (day 28)): 1.88 | Cholesterol, change of plasma metabolite (male rats; mh28 (day 28)): 1.81 | Docosahexaenoic acid (C22:cis[4,7,10,13,16,19]6), change of plasma metabolite (male rats; mh28 (day 28)): 2.06 | Eicosatrienoic acid, change of plasma metabolite (male rats; mh28 (day 28)): 1.60 | Glycerolphosphate, lipid fraction, change of plasma metabolite (male rats; mh28 (day 28)): 1.59 | Heptadecanoic acid (C17:0), change of plasma metabolite (male rats; mh28 (day 28)): 1.25 | Lignoceric acid (C24:0), change of plasma metabolite (male rats; mh28 (day 28)): 2.52 | Linoleic acid (C18:cis[9,12]2), change of plasma metabolite (male rats; mh28 (day 28)): 1.49 | Nervonic acid (C24:1), change of plasma metabolite (male rats; mh28 (day 28)): 3.39 | Palmitic acid (C16:0), change of plasma metabolite (male rats; mh28 (day 28)): 1.41 | Phosphatidylcholine (C18:2, C20:4), change of plasma metabolite (male rats; mh28 (day 28)): 1.26 | alpha-Tocopherol, change of plasma metabolite (male rats; mh28 (day 28)): 1.87 | myo-Inositol-2-monophosphate, lipid fraction, change of plasma metabolite (male rats; mh28 (day 28)): 2.31 | 1,2-Dioleoyl-sn-glycero-3-phosphatidyl-L-serine, change of plasma metabolite (female rats; fh7 (day 7)): 1.35 | 4-Hydroxysphinganine, change of plasma metabolite (female rats; fh7 (day 7)): 1.79 | Arachidonic acid (C20:cis-[5,8,11,14]4), change of plasma metabolite (female rats; fh7 (day 7)): 2.04 | Behenic acid (C22:0), change of plasma metabolite (female rats; fh7 (day 7)): 2.15 | Ceramide (d18:1, C24:0), change of plasma metabolite (female rats; fh7 (day 7)): 1.64 | Cholesterol, change of plasma metabolite (female rats; fh7 (day 7)): 2.41 | Docosahexaenoic acid (C22:cis[4,7,10,13,16,19]6), change of plasma metabolite (female rats; fh7 (day 7)): 2.02 | Glycerol, lipid fraction, change of plasma metabolite (female rats; fh7 (day 7)): 1.64 | Glycerolphosphate, lipid fraction, change of plasma metabolite (female rats; fh7 (day 7)): 2.37 | Heptadecanoic acid (C17:0), change of plasma metabolite (female rats; fh7 (day 7)): 1.43 | ID28x493, change of plasma metabolite (female rats; fh7 (day 7)): 2.27 | Lignoceric acid (C24:0), change of plasma metabolite (female rats; fh7 (day 7)): 2.01 | Linoleic acid (C18:cis[9,12]2), change of plasma metabolite (female rats; fh7 (day 7)): 1.90 | Nervonic acid (C24:1), change of plasma metabolite (female rats; fh7 (day 7)): 2.51 | Palmitic acid (C16:0), change of plasma metabolite (female rats; fh7 (day 7)): 1.93 | Phosphate, lipid (Phospholipids), change of plasma metabolite (female rats; fh7 (day 7)): 1.51 | Stearic acid (C18:0), change of plasma metabolite (female rats; fh7 (day 7)): 1.62 | TAG No 1, change of plasma metabolite (female rats; fh7 (day 7)): 2.26 | Threonic acid, change of plasma metabolite (female rats; fh7 (day 7)): 1.49 | Tricosanoic acid (C23:0), change of plasma metabolite (female rats; fh7 (day 7)): 1.65 | 1,2-Dioleoyl-sn-glycero-3-phosphatidyl-L-serine, change of plasma metabolite (female rats; fh14 (day 14)): 1.69 | 4-Hydroxysphinganine, change of plasma metabolite (female rats; fh14 (day 14)): 2.26 | Arachidonic acid (C20:cis-[5,8,11,14]4), change of plasma metabolite (female rats; fh14 (day 14)): 1.93 | Behenic acid (C22:0), change of plasma metabolite (female rats; fh14 (day 14)): 2.48 | Ceramide (d18:1, C24:0), change of plasma metabolite (female rats; fh14 (day 14)): 2.13 | Cholesterol, change of plasma metabolite (female rats; fh14 (day 14)): 2.23 | Docosahexaenoic acid (C22:cis[4,7,10,13,16,19]6), change of plasma metabolite (female rats; fh14 (day 14)): 2.21 | Glycerol, lipid fraction, change of plasma metabolite (female rats; fh14 (day 14)): 1.88 | Glycerolphosphate, lipid fraction, change of plasma metabolite (female rats; fh14 (day 14)): 1.97 | Heptadecanoic acid (C17:0), change of plasma metabolite (female rats; fh14 (day 14)): 1.64 | ID28x493, change of plasma metabolite (female rats; fh14 (day 14)): 3.14 | Lignoceric acid (C24:0), change of plasma metabolite (female rats; fh14 (day 14)): 2.29 | Linoleic acid (C18:cis[9,12]2), change of plasma metabolite (female rats; fh14 (day 14)): 2.33 | Nervonic acid (C24:1), change of plasma metabolite (female rats; fh14 (day 14)): 2.69 | Palmitic acid (C16:0), change of plasma metabolite (female rats; fh14 (day 14)): 2.08 | Phosphate, lipid (Phospholipids), change of plasma metabolite (female rats; fh14 (day 14)): 1.35 | Stearic acid (C18:0), change of plasma metabolite (female rats; fh14 (day 14)): 1.67 | TAG No 1, change of plasma metabolite (female rats; fh14 (day 14)): 2.87 | Threonic acid, change of plasma metabolite (female rats; fh14 (day 14)): 1.37 | 1,2-Dioleoyl-sn-glycero-3-phosphatidyl-L-serine, change of plasma metabolite (female rats; fh28 (day 28)): 1.47 | 4-Hydroxysphinganine, change of plasma metabolite (female rats; fh28 (day 28)): 2.22 | Arachidonic acid (C20:cis-[5,8,11,14]4), change of plasma metabolite (female rats; fh28 (day 28)): 1.80 | Behenic acid (C22:0), change of plasma metabolite (female rats; fh28 (day 28)): 2.18 | Ceramide (d18:1, C24:0), change of plasma metabolite (female rats; fh28 (day 28)): 1.82 | Cholesterol, change of plasma metabolite (female rats; fh28 (day 28)): 2.08 | Docosahexaenoic acid (C22:cis[4,7,10,13,16,19]6), change of plasma metabolite (female rats; fh28 (day 28)): 1.76 | Glycerol, lipid fraction, change of plasma metabolite (female rats; fh28 (day 28)): 1.89 | Glycerolphosphate, lipid fraction, change of plasma metabolite (female rats; fh28 (day 28)): 2.35 | Heptadecanoic acid (C17:0), change of plasma metabolite (female rats; fh28 (day 28)): 1.48 | ID28x493, change of plasma metabolite (female rats; fh28 (day 28)): 2.02 | Lignoceric acid (C24:0), change of plasma metabolite (female rats; fh28 (day 28)): 2.45 | Linoleic acid (C18:cis[9,12]2), change of plasma metabolite (female rats; fh28 (day 28)): 2.37 | Nervonic acid (C24:1), change of plasma metabolite (female rats; fh28 (day 28)): 2.91 | Palmitic acid (C16:0), change of plasma metabolite (female rats; fh28 (day 28)): 1.93 | Phosphate, lipid (Phospholipids), change of plasma metabolite (female rats; fh28 (day 28)): 1.59 | Stearic acid (C18:0), change of plasma metabolite (female rats; fh28 (day 28)): 1.61 | TAG No 1, change of plasma metabolite (female rats; fh28 (day 28)): 3.81 | Threonic acid, change of plasma metabolite (female rats; fh28 (day 28)): 1.19
